This is an account of results in PMC9757746 (Science Advances, 2022).

Holding throughout (format): biochemical
Test [1] deals with T1, Cys4 (C. albicans CBS) (Candida albicans, UniProt Q59T95).
T1 sequence (Q59T95 1-496): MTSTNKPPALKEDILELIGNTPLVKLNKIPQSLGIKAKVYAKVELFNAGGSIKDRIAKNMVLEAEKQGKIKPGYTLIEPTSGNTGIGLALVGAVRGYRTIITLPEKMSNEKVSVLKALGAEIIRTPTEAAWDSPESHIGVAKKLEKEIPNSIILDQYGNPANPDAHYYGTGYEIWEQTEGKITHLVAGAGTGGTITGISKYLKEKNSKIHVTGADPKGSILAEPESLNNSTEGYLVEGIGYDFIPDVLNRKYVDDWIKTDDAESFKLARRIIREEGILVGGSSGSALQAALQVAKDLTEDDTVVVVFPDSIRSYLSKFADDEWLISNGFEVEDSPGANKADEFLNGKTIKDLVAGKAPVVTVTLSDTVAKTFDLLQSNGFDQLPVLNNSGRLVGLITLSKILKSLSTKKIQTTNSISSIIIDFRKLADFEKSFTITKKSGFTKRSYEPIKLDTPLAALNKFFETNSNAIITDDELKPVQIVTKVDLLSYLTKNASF
Briefly: H2S generation, lead acetate, A390. The settings on record: 10 mM L-cysteine, 10 mM L-homocysteine, 50 μM PLP, 200 mM Na/bicine pH 8.6, 37 °C; 10 min preincubation.

Test [2] has as its target T1, Cys4 (C. albicans CBS). Briefly: H2S generation, lead acetate, A390. The note with it: 10 mM L-cysteine, 10 mM L-homocysteine, 50 μM PLP, 200 mM Na/bicine pH 8.6, 37 °C; screening hit.
The next test addresses T2, Cys3 (C. albicans CSE) (Candida albicans, UniProt Q5A362).
T2 sequence (Q5A362 1-399): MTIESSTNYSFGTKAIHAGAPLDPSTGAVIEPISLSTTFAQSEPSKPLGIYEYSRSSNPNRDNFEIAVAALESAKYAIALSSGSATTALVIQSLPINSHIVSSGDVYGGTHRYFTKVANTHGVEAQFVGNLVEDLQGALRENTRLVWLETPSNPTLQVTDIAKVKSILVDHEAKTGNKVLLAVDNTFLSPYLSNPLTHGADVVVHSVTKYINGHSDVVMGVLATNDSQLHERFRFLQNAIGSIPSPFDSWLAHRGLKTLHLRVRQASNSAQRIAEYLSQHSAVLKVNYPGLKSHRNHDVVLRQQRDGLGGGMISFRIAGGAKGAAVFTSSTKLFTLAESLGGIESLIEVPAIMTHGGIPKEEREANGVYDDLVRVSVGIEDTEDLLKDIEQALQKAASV
Briefly: CSE activity inhibition. The note with it: weaker inhibition than of CBS.

In another test the target is T3, cCBS-cc (Candida albicans, UniProt Q59T95).
T3 sequence (Q59T95 1-319): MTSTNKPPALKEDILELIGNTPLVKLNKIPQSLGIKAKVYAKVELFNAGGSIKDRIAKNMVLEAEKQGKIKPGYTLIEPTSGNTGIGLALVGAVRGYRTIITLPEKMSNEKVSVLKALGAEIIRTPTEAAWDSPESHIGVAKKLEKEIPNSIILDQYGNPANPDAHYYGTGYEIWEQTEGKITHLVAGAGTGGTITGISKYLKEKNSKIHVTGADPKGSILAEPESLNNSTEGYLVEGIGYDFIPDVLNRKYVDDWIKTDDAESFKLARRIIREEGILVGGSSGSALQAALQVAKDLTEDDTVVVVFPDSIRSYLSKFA
Briefly: H2S generation inhibition. The note with it: catalytic core.

The target in another test is T4, human CBS (Homo sapiens, UniProt P35520).
T4 sequence (P35520 1-551): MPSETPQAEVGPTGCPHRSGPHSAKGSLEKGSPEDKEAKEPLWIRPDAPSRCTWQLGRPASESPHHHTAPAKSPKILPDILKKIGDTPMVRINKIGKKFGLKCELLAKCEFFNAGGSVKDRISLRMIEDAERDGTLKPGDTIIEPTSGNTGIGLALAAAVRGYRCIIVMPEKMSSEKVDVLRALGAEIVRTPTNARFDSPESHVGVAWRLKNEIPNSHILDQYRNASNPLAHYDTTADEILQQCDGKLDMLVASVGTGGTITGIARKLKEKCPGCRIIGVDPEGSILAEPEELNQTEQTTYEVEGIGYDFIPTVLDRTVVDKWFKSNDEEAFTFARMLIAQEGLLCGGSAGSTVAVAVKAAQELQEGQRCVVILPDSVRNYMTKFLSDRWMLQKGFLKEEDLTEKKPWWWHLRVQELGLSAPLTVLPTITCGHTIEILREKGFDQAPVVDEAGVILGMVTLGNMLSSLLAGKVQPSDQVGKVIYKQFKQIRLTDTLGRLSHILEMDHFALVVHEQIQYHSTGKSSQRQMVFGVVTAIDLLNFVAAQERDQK
Briefly: CBS activity inhibition. The settings on record: weaker inhibition than of fungal CBS.

As to `NOCC(=O)O` [Aminooxyacetate], the dose-dependent inhibition entry at Cys4 (C. albicans CBS) [1] was “Dose-dependent inhibition of C. albicans CBS activity by PA and AOA”. As for `CC(=O)c1c(O)c(C)c(O)c2c1OC1=CC(=O)C(C(C)=O)C(=O)C12C` (stereo not drawn) [usnic acid], the “H2S generation, lead acetate, A390” value on Cys4 (C. albicans CBS) [2] is “alternariol, and usnic acid (Fig. 5A and fig. S17)”.

As for `Cc1cc(O)cc2oc(=O)c3c(O)cc(O)cc3c12` [alternariol], the “H2S generation, lead acetate, A390” value on Cys4 (C. albicans CBS) [2] was “several hits that displayed much better activity than AOA, including PA”. Turning to `C=C1C(=O)O[C@@H](CCCCCCCCCCCCC)[C@@H]1C(=O)O` [protolichesterinic acid], the CSE activity inhibition entry at Cys3 (C. albicans CSE) is “it inhibited CBS more potently than CSE (fig. S18)”. Besides, on cCBS-cc, the H2S generation inhibition entry was “still maintains potent ability to generate H2S and is inhibited by PA (fig. S24)”. On human CBS, the CBS activity inhibition result is “fungal CBS more potently than human CBS (fig. S19)”.
